Assay: Solubility / precipitation of pemetrexed diacid in aqueous solution depending on pH
Type: physicochemical
Details: aqueous solutions with neutral or acidic pH

solubility: very low
SMILES: Nc1nc2[nH]cc(CCc3ccc(C(=O)N[C@@H](CCC(=O)O)C(=O)O)cc3)c2c(=O)[nH]1 [pemetrexed diacid, N-[4-[2-(2-amino-4,7-dihydro-4-oxo-1H-pyrrolo[2,3-d]pyrimidin-5-yl)ethyl]benzoyl]-L-glutamic acid]
